Source: ChEMBL document CHEMBL1201862, “PubChem BioAssay data set” (2004)
Active and inactive are the calls of the source.

Assays:
[1] = molecular target: Induced myeloid leukemia cell differentiation protein Mcl-1 (Homo sapiens, UniProt Q07820); assay: MCL1-BIM BH3 interaction inhibitors, dose response, biochemical, fluorescence polarization, BIM-BH3 peptide, 1536-well (AID 2217)
Bcl-2-like protein 1 = Bcl-2-like protein 1 (Homo sapiens, UniProt Q07817); assay: BCL-XL inhibitors, dose response, selectivity assay for MCL1 inhibitor project, biochemical, fluorescence polarization, 1536-well (AID 2218)
Bcl-2-like protein 1, sequence (Q07817 whole entry): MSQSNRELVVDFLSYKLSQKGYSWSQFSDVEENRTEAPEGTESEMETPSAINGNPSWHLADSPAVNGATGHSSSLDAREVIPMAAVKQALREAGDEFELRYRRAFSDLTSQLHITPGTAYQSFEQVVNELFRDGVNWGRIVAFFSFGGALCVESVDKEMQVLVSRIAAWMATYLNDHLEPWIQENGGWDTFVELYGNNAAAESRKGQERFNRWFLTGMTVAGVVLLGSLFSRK

[2] = molecular target: Intestinal-type alkaline phosphatase (Mus musculus, UniProt P24822); assay: PubChem AID 488785; assay type: functional
Intestinal-type alkaline phosphatase (Mus musculus, UniProt P24822), sequence (P24822 whole entry): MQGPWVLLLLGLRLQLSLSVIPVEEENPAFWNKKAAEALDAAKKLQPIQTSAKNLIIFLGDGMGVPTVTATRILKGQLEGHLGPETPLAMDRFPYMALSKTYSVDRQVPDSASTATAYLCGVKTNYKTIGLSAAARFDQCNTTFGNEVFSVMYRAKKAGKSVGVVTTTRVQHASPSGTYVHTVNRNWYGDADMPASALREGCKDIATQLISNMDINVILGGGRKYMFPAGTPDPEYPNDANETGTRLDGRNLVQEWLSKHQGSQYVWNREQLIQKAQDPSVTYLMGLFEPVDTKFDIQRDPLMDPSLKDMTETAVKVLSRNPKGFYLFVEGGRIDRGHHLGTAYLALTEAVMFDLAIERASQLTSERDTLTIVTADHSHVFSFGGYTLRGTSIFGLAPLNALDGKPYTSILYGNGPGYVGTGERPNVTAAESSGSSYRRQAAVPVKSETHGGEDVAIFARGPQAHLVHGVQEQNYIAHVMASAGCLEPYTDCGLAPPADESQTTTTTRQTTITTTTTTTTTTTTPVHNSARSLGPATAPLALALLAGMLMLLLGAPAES

[3] = molecular target: T1, Alkaline phosphatase, tissue-nonspecific isozyme (Homo sapiens, UniProt P05186); assay: TNAP enzyme inhibition by screening hits, dose response, selectivity assay for mouse IAP inhibitor project, biochemical, human TNAP, uHTS hits (AID 488906); assay type: functional
T1 sequence (P05186 whole entry): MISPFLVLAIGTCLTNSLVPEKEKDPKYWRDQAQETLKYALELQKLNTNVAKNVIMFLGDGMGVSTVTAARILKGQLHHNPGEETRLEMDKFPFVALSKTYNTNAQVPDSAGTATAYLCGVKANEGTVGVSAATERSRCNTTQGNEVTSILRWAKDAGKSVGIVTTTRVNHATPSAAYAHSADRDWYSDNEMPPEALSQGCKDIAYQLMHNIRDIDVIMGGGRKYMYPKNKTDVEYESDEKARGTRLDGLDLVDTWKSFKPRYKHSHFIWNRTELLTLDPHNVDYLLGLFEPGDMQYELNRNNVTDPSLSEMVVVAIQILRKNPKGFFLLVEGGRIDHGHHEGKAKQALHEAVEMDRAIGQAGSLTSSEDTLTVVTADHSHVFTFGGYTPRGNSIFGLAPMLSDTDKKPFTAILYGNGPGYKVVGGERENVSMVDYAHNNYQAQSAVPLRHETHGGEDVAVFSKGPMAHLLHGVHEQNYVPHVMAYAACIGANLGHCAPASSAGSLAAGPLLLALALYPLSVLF

[4] = molecular target: Intestinal-type alkaline phosphatase (Homo sapiens, UniProt P09923); assay: inhibition of human intestinal alkaline phosphatase – biochemical, dose response (AID 488876); assay type: functional
Intestinal-type alkaline phosphatase (Homo sapiens, UniProt P09923), sequence (P09923 whole entry): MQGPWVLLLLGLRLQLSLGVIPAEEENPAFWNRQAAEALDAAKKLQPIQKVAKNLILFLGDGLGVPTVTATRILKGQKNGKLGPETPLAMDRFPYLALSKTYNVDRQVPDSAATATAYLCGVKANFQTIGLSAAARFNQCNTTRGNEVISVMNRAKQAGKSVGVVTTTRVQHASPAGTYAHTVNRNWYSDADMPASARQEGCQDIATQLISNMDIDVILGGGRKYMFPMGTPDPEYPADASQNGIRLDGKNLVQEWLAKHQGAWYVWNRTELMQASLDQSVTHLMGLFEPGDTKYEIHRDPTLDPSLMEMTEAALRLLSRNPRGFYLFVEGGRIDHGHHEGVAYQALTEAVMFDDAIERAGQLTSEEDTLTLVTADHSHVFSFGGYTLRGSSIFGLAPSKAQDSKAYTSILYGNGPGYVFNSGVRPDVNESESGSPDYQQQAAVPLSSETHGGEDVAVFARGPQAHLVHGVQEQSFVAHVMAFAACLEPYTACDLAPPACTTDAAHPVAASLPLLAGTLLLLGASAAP

[5] = molecular target: Eukaryotic translation initiation factor 4E (Mus musculus, UniProt P63073); assay: eIF4E–eIF4G protein interaction inhibitors, dose response, biochemical, TR-FRET (AID 855); assay type: functional;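 further: potency for disrupting eIF4E binding to eIF4GI seen as loss of FRET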
Eukaryotic translation initiation factor 4E, sequence (P63073 whole entry, the tested form may be a part): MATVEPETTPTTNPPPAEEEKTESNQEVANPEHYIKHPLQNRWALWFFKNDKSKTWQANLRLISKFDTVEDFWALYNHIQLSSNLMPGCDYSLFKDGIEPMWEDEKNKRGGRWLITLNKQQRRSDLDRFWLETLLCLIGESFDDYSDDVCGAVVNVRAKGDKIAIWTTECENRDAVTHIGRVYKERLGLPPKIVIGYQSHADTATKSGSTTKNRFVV

[6] = molecular target: T2, Carboxy-terminal domain RNA polymerase II polypeptide A small phosphatase 1 (Homo sapiens, UniProt Q9GZU7); assay: inhibitors of CTDSP1, concentration-response testing, biochemical assay, absorbance-based, actives from ultra-high-throughput screening (AID 540297); assay type: functional
T2 sequence (Q9GZU7 whole entry): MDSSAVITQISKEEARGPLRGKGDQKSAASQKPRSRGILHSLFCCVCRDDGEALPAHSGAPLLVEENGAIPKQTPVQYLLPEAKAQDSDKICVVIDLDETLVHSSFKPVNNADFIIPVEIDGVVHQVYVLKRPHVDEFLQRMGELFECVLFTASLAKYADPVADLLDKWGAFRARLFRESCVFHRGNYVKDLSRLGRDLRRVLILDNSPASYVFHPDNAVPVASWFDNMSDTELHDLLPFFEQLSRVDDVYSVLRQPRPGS

[7] = molecular target: Voltage-gated inwardly rectifying potassium channel KCNH2 (Homo sapiens, UniProt Q12809); assay: hERG protection from proarrhythmic block, potency, dose response, cell-based, thallium flux (AID 2121); assay type: ADME
Voltage-gated inwardly rectifying potassium channel KCNH2, sequence (Q12809 whole entry): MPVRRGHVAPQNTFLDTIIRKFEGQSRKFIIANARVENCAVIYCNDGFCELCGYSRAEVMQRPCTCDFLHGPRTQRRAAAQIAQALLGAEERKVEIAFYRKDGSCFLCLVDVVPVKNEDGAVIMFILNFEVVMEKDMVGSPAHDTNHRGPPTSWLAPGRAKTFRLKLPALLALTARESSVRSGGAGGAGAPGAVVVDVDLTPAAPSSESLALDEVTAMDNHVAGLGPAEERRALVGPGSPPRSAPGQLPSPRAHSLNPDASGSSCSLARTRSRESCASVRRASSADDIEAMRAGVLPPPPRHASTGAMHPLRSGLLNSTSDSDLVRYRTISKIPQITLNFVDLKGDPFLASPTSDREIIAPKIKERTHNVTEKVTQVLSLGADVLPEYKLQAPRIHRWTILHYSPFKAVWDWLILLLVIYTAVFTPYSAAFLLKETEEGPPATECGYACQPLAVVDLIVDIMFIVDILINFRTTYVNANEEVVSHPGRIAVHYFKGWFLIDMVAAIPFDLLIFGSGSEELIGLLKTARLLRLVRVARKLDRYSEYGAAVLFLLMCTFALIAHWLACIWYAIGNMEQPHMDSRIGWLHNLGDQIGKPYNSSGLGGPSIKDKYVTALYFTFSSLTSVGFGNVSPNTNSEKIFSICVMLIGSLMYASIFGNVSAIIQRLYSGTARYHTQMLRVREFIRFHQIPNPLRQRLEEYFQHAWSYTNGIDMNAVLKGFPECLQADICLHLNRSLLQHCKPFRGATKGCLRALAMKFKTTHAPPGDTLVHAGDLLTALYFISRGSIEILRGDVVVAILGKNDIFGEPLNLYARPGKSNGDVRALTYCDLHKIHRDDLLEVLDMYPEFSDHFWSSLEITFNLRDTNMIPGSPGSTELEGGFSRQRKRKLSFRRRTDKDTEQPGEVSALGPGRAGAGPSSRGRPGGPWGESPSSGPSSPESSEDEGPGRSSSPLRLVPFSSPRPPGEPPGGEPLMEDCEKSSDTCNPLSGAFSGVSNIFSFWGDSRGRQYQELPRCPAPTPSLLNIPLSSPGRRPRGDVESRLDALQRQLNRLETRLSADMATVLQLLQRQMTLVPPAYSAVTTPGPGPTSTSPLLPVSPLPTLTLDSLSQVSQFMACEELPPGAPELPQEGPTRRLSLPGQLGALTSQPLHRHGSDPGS

Cytochrome P450 2C19 = Cytochrome P450 2C19 (Homo sapiens, UniProt P33261); assay: Cytochrome panel assay with activity outcomes. Panel member name: p450-cyp2c19 Compounds with AC50 equal or less than 10 uM are considered active; assay type: functional; conditions: read-out: AC50
Cytochrome P450 2C19, sequence (P33261 whole entry): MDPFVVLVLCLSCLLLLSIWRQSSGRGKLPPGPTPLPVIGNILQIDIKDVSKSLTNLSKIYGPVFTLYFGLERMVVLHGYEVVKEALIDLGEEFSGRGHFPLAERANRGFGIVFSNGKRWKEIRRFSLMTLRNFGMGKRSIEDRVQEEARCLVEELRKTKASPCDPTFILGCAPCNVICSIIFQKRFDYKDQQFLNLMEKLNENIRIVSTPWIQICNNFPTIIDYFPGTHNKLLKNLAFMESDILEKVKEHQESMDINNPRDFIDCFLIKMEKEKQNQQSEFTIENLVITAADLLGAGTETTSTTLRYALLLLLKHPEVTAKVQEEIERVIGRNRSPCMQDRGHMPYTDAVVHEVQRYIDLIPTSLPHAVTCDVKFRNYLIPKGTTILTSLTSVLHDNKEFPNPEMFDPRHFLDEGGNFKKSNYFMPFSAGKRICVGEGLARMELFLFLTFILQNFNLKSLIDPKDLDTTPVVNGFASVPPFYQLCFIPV

Protein skinhead-1 = molecular target: T3, Protein skinhead-1 (Caenorhabditis elegans, UniProt P34707); assay type: functional
T3 sequence (P34707 whole entry): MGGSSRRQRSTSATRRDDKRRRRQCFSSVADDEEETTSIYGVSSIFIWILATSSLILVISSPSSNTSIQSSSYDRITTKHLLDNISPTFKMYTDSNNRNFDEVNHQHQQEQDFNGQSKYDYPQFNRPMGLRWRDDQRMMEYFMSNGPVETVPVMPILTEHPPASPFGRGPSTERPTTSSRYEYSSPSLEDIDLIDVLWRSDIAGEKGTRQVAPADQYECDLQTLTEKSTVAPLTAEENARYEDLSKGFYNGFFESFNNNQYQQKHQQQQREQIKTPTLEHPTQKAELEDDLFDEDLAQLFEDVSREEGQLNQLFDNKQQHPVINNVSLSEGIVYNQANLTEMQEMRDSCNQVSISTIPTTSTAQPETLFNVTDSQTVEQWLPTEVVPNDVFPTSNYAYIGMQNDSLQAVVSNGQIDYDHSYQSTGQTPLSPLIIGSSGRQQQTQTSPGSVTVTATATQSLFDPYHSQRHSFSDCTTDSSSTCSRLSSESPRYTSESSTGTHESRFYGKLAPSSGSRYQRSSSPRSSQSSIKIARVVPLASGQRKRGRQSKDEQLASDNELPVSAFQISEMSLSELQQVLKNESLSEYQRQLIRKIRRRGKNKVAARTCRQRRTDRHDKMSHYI

Cytochrome P450 3A4 = Cytochrome P450 3A4 (Homo sapiens, UniProt P08684);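 further: CYP3A4 tested as one member of a cytochrome P450 panel screen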
Cytochrome P450 3A4, sequence (P08684 whole entry): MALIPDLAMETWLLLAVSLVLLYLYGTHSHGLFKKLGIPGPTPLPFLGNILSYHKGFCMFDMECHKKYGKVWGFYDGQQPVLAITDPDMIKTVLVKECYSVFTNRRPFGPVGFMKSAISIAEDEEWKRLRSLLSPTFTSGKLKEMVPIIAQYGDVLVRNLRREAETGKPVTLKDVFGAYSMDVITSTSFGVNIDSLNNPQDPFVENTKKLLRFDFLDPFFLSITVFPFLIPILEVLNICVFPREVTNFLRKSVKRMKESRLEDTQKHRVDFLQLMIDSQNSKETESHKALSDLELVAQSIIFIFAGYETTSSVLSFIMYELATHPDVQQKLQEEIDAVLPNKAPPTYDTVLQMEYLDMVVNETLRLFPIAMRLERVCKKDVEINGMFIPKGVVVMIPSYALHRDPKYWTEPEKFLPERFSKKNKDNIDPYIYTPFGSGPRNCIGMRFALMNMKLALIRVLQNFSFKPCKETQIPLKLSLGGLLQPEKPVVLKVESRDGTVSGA

Cytochrome P450 2C9 = Cytochrome P450 2C9 (Homo sapiens, UniProt P11712)
Cytochrome P450 2C9, sequence (P11712 whole entry): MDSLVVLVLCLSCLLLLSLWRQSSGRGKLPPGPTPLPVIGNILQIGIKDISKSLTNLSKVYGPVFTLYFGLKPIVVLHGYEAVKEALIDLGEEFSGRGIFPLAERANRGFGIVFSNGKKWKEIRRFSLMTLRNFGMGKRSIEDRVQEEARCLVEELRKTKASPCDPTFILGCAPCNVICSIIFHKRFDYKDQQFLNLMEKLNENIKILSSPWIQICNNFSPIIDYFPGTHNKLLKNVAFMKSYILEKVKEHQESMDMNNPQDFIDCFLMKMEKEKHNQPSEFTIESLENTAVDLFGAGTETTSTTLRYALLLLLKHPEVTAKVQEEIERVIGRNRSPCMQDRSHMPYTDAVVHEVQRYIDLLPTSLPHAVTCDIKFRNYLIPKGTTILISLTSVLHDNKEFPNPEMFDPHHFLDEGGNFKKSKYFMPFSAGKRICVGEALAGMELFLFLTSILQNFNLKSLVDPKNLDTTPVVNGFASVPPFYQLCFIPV

[8] = molecular target: T4, Neuropeptide Y receptor type 2 (Homo sapiens, UniProt P49146); assay: NPY-Y2 antagonist potency, selectivity check, dose response, counter-screen for NPY-Y1 antagonist project, cell-based (AID 1278); assay type: functional
T4 sequence (P49146 whole entry): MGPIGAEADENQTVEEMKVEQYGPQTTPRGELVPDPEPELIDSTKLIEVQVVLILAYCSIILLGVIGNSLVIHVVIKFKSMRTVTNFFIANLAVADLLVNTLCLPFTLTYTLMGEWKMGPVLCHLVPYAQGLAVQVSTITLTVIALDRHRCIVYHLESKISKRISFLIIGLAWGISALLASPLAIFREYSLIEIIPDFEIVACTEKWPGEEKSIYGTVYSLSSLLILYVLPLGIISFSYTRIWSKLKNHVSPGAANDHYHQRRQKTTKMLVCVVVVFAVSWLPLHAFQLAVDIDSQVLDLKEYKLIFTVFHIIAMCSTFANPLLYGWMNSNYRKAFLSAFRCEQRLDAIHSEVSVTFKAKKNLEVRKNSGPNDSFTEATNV

[9] = molecular target: T5, Neuropeptide Y receptor type 1 (Homo sapiens, UniProt P25929); assay: NPY-Y1 receptor antagonist potency, dose response, cell-based (AID 1277); assay type: functional
T5 sequence (P25929 whole entry): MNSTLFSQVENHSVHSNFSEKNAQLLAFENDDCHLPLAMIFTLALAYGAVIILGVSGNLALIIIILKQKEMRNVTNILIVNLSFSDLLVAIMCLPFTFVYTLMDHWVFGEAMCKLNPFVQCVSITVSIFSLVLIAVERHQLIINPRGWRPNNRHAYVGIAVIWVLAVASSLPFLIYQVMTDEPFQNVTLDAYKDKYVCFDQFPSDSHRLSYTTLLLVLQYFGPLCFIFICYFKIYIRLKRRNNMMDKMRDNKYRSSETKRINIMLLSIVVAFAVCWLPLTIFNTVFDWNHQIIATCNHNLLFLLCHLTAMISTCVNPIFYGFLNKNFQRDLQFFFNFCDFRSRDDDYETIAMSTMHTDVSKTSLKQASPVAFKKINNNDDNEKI

[10] = M. tuberculosis H37Rv growth inhibitors, H37Rv strain (AID 1626); assay type: functional

Induced myeloid leukemia cell differentiation protein Mcl-1, sequence (Q07820 whole entry): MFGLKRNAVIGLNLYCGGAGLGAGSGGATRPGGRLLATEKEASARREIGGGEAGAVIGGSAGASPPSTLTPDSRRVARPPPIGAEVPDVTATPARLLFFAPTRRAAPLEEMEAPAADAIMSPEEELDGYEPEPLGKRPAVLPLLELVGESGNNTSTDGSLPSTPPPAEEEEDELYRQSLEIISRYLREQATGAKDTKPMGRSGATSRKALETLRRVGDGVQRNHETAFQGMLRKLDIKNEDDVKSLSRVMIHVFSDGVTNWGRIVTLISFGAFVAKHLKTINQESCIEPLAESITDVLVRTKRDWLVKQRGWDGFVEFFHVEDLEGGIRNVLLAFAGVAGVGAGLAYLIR

CCN(C(=O)C(C)N1C(=O)/C(=C/c2ccco2)SC1=S)C1CCS(=O)(=O)C1 (centres undefined)
IC50 [1]: > 12.1 µM (not active)
IC50 (Bcl-2-like protein 1): > 109 µM (not active)
IC50 [2]: 0.419 µM (active)
IC50 [3]: 11.1 µM (active)
IC50 [4]: 3.79 µM (active)

O=C(/C=C/c1ccco1)N(c1ccccn1)c1ccccn1
IC50 [1]: 19.8 µM (not active)
IC50 (Bcl-2-like protein 1): > 109 µM (not active)
IC50 [5]: 50 µM (inactive)
IC50 [6]: 3.29 µM (active)

Cc1ccc(NC(=S)c2nc3ccccc3s2)cc1
EC50 [7]: 0.46 µM (active)
AC50 (Cytochrome P450 2C19): 0.0251 µM (inconclusive)
IC50 (Protein skinhead-1): > 100 µM (inactive)
AC50 (Cytochrome P450 3A4): 22.4 µM (inconclusive)
AC50 (Cytochrome P450 2C9): 10 µM (inconclusive)

CC(C)(C)NCc1cc(Br)ccc1OC1CCCC1
IC50 [8]: 11.2 µM (not active)
IC50 [9]: 7.43 µM (active)

CCOC(=O)C1(CCCc2ccccc2)CCN(C2CCSCC2)CC1
IC50 [8]: > 35 µM (not active)
IC50 [9]: 16.7 µM (not active)

N#Cc1ccc(/C=C/C(=O)c2ccc3c(c2)OCO3)cc1
IC50 [10]: > 100 µM (active)
